The results in this text go back to patent US6787570B2, “Substituted N-cycloalkyl-N-benzyl aminoalcohol compounds useful for inhibiting cholesteryl ester transfer protein activity” (Pfizer, Inc., priority 1999, dated 2004).

SMILES strings stand for the structures.

For the assay, the target named is T1, Human recombinant CETP (Homo sapiens, UniProt P11597).
T1 construct: made in house; host or cells: CHO cells (serum-free conditioned medium)
T1 sequence (P11597 18-493): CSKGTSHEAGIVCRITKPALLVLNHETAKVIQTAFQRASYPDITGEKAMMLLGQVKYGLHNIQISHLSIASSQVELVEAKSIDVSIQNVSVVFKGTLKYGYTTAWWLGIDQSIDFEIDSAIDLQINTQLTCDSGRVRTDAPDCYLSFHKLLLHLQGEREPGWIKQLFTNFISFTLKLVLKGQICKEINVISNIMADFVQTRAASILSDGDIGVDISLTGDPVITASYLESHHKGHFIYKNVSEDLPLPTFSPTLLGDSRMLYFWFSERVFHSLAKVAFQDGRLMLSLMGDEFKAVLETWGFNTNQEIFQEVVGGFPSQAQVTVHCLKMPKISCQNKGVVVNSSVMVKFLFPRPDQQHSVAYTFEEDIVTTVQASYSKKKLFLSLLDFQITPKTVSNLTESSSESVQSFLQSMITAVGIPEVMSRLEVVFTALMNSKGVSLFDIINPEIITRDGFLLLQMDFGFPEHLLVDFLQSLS
Put plainly: Assay of CETP Inhibition Using Purified Components (Reconstituted Buffer Assay). The class given is biochemical. To be noted: transfer of [3H]CE from HDL to LDL, 2 hours at 37° C. How it is done:
Assay of CETP Inhibition Using Purified Components (Reconstituted Buffer Assay)
The ability of compounds to inhibit CETP activity was assessed using an in vitro assay that measured the rate of transfer of radiolabeled cholesteryl ester ([^3H]CE) from HDL donor particles to LDL acceptor particles. Details of the assay are provided by Glenn, K. C. et al. (Glenn and Melton, “Quantification of Cholesteryl Ester Transfer Protein (CETP): A) CETP Activity and B) Immunochemical Assay of CETP Protein,” Meth. Enzymol., 263, 339-351 (1996)). Human recombinant CETP can be obtained from the serum-free conditioned medium of CHO cells transfected with a cDNA for CETP and purified as described by Wang, S. et al. (J. Biol. Chem. 267, 17487-17490 (1992)). To measure CETP activity, [^3H]CE-labeled-HDL, LDL, CETP and assay buffer (50 mM tris(hydroxymethyl)aminomethane, pH 7.4; 150 mM sodium chloride; 2 mM ethylenediamine-tetraacetic acid (EDTA); 1% bovine serum albumin) were incubated in a final volume of 200 μL, for 2 hours at 37° C. in 96 well plates. Inhibitors were included in the assay by diluting from a 10 mM DMSO stock solution into 16% (v/v) aqueous DMSO so that the final concentration of inhibitor was 800 μM. The inhibitors were then diluted 1:1 with CETP in assay buffer, and then 25 μL of that solution was mixed with 175 μL of lipoprotein pool for assay. Following incubation, LDL was differentially precipitated by the addition of 50 μL of 1% (w/v) dextran sulfate/0.5 M magnesium chloride, mixed by vortex, and incubated at room temperature for 10 minutes. A potion of the solution (200 μL) was transferred to a filter plate (Millipore). After filtration, the radioactivity present in the precipitated LDL was measured by liquid scintillation counting. […] The rate of [^3H]CE transfer using this assay was linear with respect to time and CETP concentration, up to 25-30% of [^3H]CE transferred.
The potency of test compounds was determined by performing the above described assay in the presence of varying concentrations of the test compounds and determining the concentration required for 50% inhibition of transfer of [3H]CE from HDL to LDL. This value was defined as the IC50. The IC50 values determined from this assay are accurate when the IC50 is greater than 10 nM.
With `CCc1cc(Oc2cccc(N(CC3CCCCC3)CC(O)C(F)(F)F)c2)ccc1Cl` (stereo not drawn) [Example 18, 3-[[3-(4-chloro-3-ethylphenoxy)phenyl][3-cyclohexylmethyl]amino]-1,1,1-trifluoro-2-propanol], the IC50 was 11 µM. The value for `OC(CN(Cc1ccc(OC(F)(F)F)cc1)CC(O)C(F)(F)F)C(F)(F)F` (stereo not drawn) [Example 17] was 60 µM; that for `CC(C)N(Cc1cccc(OC(F)(F)F)c1)CC(O)C(F)(F)F` (stereo not drawn) [Example 5] was more than 100 µM; that for `CCCN(Cc1cccc(OC(F)(F)F)c1)CC(O)C(F)(F)F` (stereo not drawn) [Example 6] was more than 100 µM. With `CCCCCC=CCN(CC(O)C(F)(F)F)c1cccc(OC(F)(F)F)c1` (stereo not drawn) [Example 9], the IC50 worked out at 18 µM. The figure for `CC1CCC(N(Cc2cccc(C(F)(F)F)c2)CC(O)C(F)(F)F)CC1` (stereo not drawn) [Example 1, 3-[(4-methylcyclohexyl)[[(3-trifluoromethyl)phenyl]methyl]amino]-1,1,1-trifluoro-2-propanol] is 15 µM; for `C=C(CN(CC(O)C(F)(F)F)c1cccc(OC(F)(F)F)c1)C(=O)OC` (stereo not drawn) [Example 12] it is 60 µM.

As for `OC(CN(Cc1cccc(C(F)(F)F)c1)CC(O)C(F)(F)F)C(F)(F)F` (stereo not drawn) [Example 16], the IC50 turned out to be 15 µM.

As to `COCC=CCN(CC(O)C(F)(F)F)c1cccc(OC(F)(F)F)c1` (stereo not drawn) [Example 14], the IC50 was 55 µM. The figure for `COC(=O)C=CCN(CC(O)C(F)(F)F)c1cccc(OC(F)(F)F)c1` (stereo not drawn) [Example 13] is 80 µM. With `OC(CN(Cc1cccc(OC(F)(F)F)c1)C1CC1)C(F)(F)F` (stereo not drawn) [Example 4], the IC50 worked out at 20 µM. The figure for `CC(C)CCN(CC(O)C(F)(F)F)c1cccc(OC(F)(F)F)c1` (stereo not drawn) [Example 11] is 45 µM.

On to `CC(C)=CCN(CC(O)C(F)(F)F)c1cccc(OC(F)(F)F)c1` (stereo not drawn) [Example 8], for which the IC50 stood at 45 µM.

As to `C#CCN(CC(O)C(F)(F)F)c1cccc(OC(F)(F)F)c1` (stereo not drawn) [Example 10], the IC50 was determined as 50 µM.

For `OC(CN(Cc1ccccc1)CC(O)C(F)(F)F)C(F)(F)F` (stereo not drawn) [Example 15, 1,1′-[(Phenylmethyl)imino]bis[3,3,3-trifluoro-2-propanol]], the IC50 was more than 100 µM.

As usually defined, the IC50 is the concentration that inhibits the measured activity by half.
